According to patent US12409184B2, “Iloprost compositions and formulations thereof” (BTG INTERNATIONAL INC., priority 2020, dated 2025):

Experiments:
[1] = test system: subjects with symptomatic Raynaud's Phenomenon (RP) secondary to Systemic Sclerosis (SSc); assay: Example 1 double-blind placebo-controlled study, ePRO diary efficacy on symptomatic RP attacks; format: in vivo, human; settings: for Weekly Frequency of Symptomatic RP Attacks, Treatment comparison of change vs placebo, LS mean difference in change: ANCOVA, N = 17 per group, p 0.8498
Excerpt: This was a multicenter, double-blind, randomized, placebo-controlled study to provide an initial evaluation of the effect of iloprost on the symptomatic relief of RP attacks in subjects with SSc. As a pilot study, it was not powered to provide a definitive estimate of the effect of iloprost. Importantly, this study tested the feasibility of collecting the study endpoints and logistics of study operations that included, among other things, an electronic patient-reported outcomes (ePRO) diary for the evaluation of subject response to the treatment, as well as the infusion workflow for this multiday treatment. Subjects were allowed to continue receiving stable standard of care therapies for the management of symptomatic RP (e.g., calcium channel blockers, angiotensin-converting enzyme inhibitors, statins, fluoxetine, and low-dose acetylsalicylic acid) or may have participated without the use of background standard of care therapies.
The primary objective was to evaluate the efficacy of iloprost compared to placebo on the change in the weekly frequency of symptomatic Raynaud's Phenomenon (RP) attacks from baseline in subjects with symptomatic RP secondary to Systemic Sclerosis (SSc). The exploratory objectives were the following: • To evaluate the efficacy of iloprost compared to placebo on the severity of RP attack symptoms • To evaluate the efficacy of iloprost compared to placebo on the Raynaud's Condition Score • To evaluate the efficacy of iloprost compared to placebo on hand function as assessed by the Cochin Hand Function Scale (CHFS) • To evaluate the safety and tolerability of iloprost • To evaluate the efficacy of iloprost compared to placebo on symptomatic RP attack duration • To evaluate the efficacy of iloprost compared to placebo on the worst pain associated with symptomatic RP • To evaluate the efficacy of iloprost compared to placebo on the subject assessment of overall improvement in symptomatic RP • To evaluate the pharmacokinetics (PK) of iloprost in subjects with symptomatic RP secondary to SSc
The study consisted of an up to 30-day screening period during which subjects completed a daily ePRO diary to record information regarding all symptomatic RP attacks (e.g., severity of symptoms, duration, and hand function). […] The baseline ePRO diary completion period may have been extended beyond 10 days in order to accommodate the preferred Monday through Friday dosing schedule. The ePRO symptomatic RP attack data from this time period were used for the calculation of the baseline frequency of symptomatic RP attacks.
Subjects were randomized in a 1:1 ratio to iloprost injection for IV use or placebo. Randomization was stratified based on the use of phosphodiesterase inhibitors at screening. Study drug administration began on Day 1, and subjects received study drug for 5 consecutive days (e.g., Monday through Friday) as an IV infusion over 6 hours each day via a peripheral line (NovaCath™ Integrated IV Catheter System) or a peripherally inserted central catheter using an infusion pump.
On Day 1, study drug was initiated at a starting dose of 0.5 ng/kg/min, and dose increases occurred every 30 minutes (+5 minutes) in increments of 0.5 ng/kg/min up to 2.0 ng/kg/min or the individual tolerated dose. If dose-limiting adverse events (e.g., headache, flushing, jaw pain, myalgia, nausea, or vomiting) occurred that could not be tolerated by the subject, or if the subject experienced symptomatic hypotension, then the dose was reduced in a step-wise manner by 0.5 ng/kg/min every 30 minutes (+5 minutes) until a tolerated dose was determined or the infusion was stopped until the symptoms resolved at which point the study drug was reinitiated at a previously tolerated dose. If symptomatic hypotension or a dose-limiting adverse event occurred during administration of iloprost at the starting dose (i.e., 0.5 ng/kg/min), the infusion was reduced to 0.25 ng/kg/min. […]

[2] = Example 1 PK sub-study, plasma iloprost by LC-MS; format: in vivo, human; settings: for CLss, Mean (SD): n 1
Procedure: Eligible subjects were given the option to participate in a PK sub-study. Subjects who participated in the sub-study provided plasma samples for PK analysis. The samples were analyzed for iloprost concentrations using validated liquid chromatography mass spectrometry methods.
The following PK parameters were calculated whenever possible, based on the plasma concentrations of iloprost: • Steady state plasma concentration just before infusion was stopped • Area under the plasma concentration versus time curve (AUC) from time of dosing to the last time point with measurable concentration (AUC0-last) • AUC from time 0 extrapolated to infinity (AUC0-inf) • Percentage of AUC obtained by extrapolation (AUCextrape %) • Terminal elimination constant (λz) • Plasma terminal elimination half-life (t½) • Plasma clearance (CL), calculated as dose/AUC0-inf • Volume of distribution (V), calculated as dose/(λz×AUC0-inf) Safety

Q: Which “Average Overall Severity of Symptomatic RP Attacks, Baseline, Mean” value ([1]; 11-point NRS (0 to 10), before treatment, N = 17) does the source give for `CC#CCC(C)[C@H](O)/C=C/[C@@H]1[C@H]2C/C(=C/CCCC(=O)O)C[C@H]2C[C@H]1O` (stereo partly drawn) [Iloprost, (5E)-5-[(3aS,4R,5R,6aS)-5-hydroxy-4-[(E,3S)-3-hydroxy-4-methyloct-1-en-6-ynyl]-3,3a,4,5,6,6a-hexahydro-1H-pentalen-2-ylidene]pentanoic acid] here?
A: 5.30

Q: And the “Average Overall Severity of Symptomatic RP Attacks, Treatment comparison of change vs placebo, LS mean difference in change” value ([1]; 11-point NRS, p 0.4409)?
A: −0.47

Q: What about the “Weekly Frequency of Symptomatic RP Attacks, Treatment comparison of change vs placebo, LS mean difference in change” value [1] of the same compound?
A: −0.77

Q: And the “Weekly Frequency of Symptomatic RP Attacks, Treatment comparison of change vs placebo, LS mean difference in change” value ([1]; listed as iloprost)?
A: not statistically significant

Q: And the “Exploratory endpoints (overall severity, Raynaud's Condition Score, weekly duration, worst symptoms, PGI-S and PGI-C): differences in the iloprost group compared to placebo” value ([1]; baseline to double-blind endpoint)?
A: not statistically significant

Q: What about the “Weekly Frequency of Symptomatic RP Attacks, Treatment comparison of change vs placebo, LS mean difference in change (treatment effect)” value ([1]; subgroup Randomization Date After 3 Jun. 2019, p 0.7116) of the same compound?
A: 2.04

Q: What about the “CLss, Mean (SD)” value ([2]; Maximum Tolerated Dose Level 1.00 ng/kg/min) of the same compound?
A: 91.22 (NA) L/h

Q: And the “CLss, Mean (SD)” value ([2]; Maximum Tolerated Dose Level 1.50 ng/kg/min)?
A: 6.01 (NA) L/h

Q: What about the “Css, Geometric mean (geometric CV %)” value ([2]; Maximum Tolerated Dose Level 1.50 ng/kg/min, n 2) of the same compound?
A: 32.90 (284.8) pg/mL

Q: What about the “CLss, Mean (SD)” value ([2]; Maximum Tolerated Dose Level 2.00 ng/kg/min) of the same compound?
A: 64.53 (NA) L/h
